{"source": "patent US12048691B2", "about": "(SPERO THERAPEUTICS, INC., priority 2020, dated 2024)", "assay_type_in_all_cases": "cell-based", "key": {"[1]": {"test_system": "Enterobacterales (ENT)", "experiment": "Broth microdilution against US UTI pathogens 2019-2020", "conditions": "against ENT, EC, and KPN", "protocol": "This study assessed the in vitro activity of tebipenem and comparator agents against Enterobacterales (ENT) responsible for UTIs in the US during 2019-2020. A total of 3,576 ENT recovered from urine samples during the 2019-2020 STEWARD Surveillance Program were included in the study. Isolates were collected from medical centers in all 9 US Census Regions and were centrally tested for susceptibility by reference broth microdilution method. MIC interpretation was performed based on CLSI criteria."}, "[2]": {"test_system": "Methicillin-susceptible Staphylococcus aureus (MSSA)", "experiment": "Broth microdilution against Gram-positive clinical isolates", "protocol": "(§1) The purpose of this study was to investigate the in vitro activity of tebipenem and comparator agents, including ertapenem and meropenem, against a recent collection of Gram-positive isolates associated with clinical infections. The susceptibility of 580 Gram-positive organisms were tested, including: Methicillin-susceptible Staphylococcus aureus (MSSA, 489 isolates), Methicillin-susceptible Staphylococcus epidermidis (MSSE, 31), other methicillin-susceptible coagulase-negative staphylococci (MSCONS, 29), and Vancomycin-susceptible Enterococcus faecalis (31). Bacterial species were identified by JMI Laboratories using standard microbiology methods and matrix-assisted laser desorption ionization-time of flight mass spectrometry (Bruker Daltonics, Bremen, Germany). The isolates were collected in 2018 and 2019 as part of the SENTRY surveillance program and selected to be representative of these species with 45.0% from the United States, 44.3% from Europe, 5.3% from the Asia-Pacific region, and 5.3% from Latin America. Isolates are primarily from pneumonia in hospitalized patients (498 isolates; 85.9%), urinary tract infections (42 isolates; 7.2%), and bloodstream infections (38 isolates; 6.6%). Isolates were tested in a central laboratory (JMI Laboratories) for antimicrobial susceptibility using the CLSI M07 (2018) reference broth microdilution method. JMI Laboratories produced frozen-form 96-well panels and used cation-adjusted Mueller-Hinton broth (CA-MHB) as the testing medium. All categorical interpretations used CLSI M100 (2021) and EUCAST v10.0 (2021) breakpoint criteria, where published. Quality control organisms include Escherichia coli ATCC 25922, Escherichia coli ATCC 35218, Enterococcus faecalis ATCC 29212, Pseudomonas aeruginosa ATCC 27853, and Staphylococcus aureus ATCC 29213 were tested concurrently with clinical isolates."}, "[3]": {"test_system": "Vancomycin-susceptible Enterococcus faecalis", "experiment": "Broth microdilution against Gram-positive clinical isolates", "conditions": "E. faecalis", "protocol": "as §1"}, "[4]": {"test_system": "Methicillin-susceptible Staphylococcus epidermidis (MSSE)", "experiment": "Broth microdilution against Gram-positive clinical isolates", "protocol": "as §1"}, "[5]": {"test_system": "other methicillin-susceptible coagulase-negative staphylococci (MSCONS)", "experiment": "Broth microdilution against Gram-positive clinical isolates", "protocol": "The purpose of this study was to investigate the in vitro activity of tebipenem and comparator agents, including ertapenem and meropenem, against a recent collection of Gram-positive isolates associated with clinical infections. The susceptibility of 580 Gram-positive organisms were tested, including: […] Bacterial species were identified by JMI Laboratories using standard microbiology methods and matrix-assisted laser desorption ionization-time of flight mass spectrometry (Bruker Daltonics, Bremen, Germany). […] Isolates were tested in a central laboratory (JMI Laboratories) for antimicrobial susceptibility using the CLSI […] (2018) reference broth microdilution method. JMI Laboratories produced frozen-form 96-well panels and used cation-adjusted Mueller-Hinton broth (CA-MHB) as the testing medium. […] Quality control organisms include Escherichia coli ATCC 25922, Escherichia coli ATCC 35218, Enterococcus faecalis ATCC 29212, Pseudomonas aeruginosa ATCC 27853, and Staphylococcus aureus ATCC 29213 were tested concurrently with clinical isolates."}, "[6]": {"test_system": "P. aeruginosa isolates that overproduced AmpC", "experiment": "Broth microdilution susceptibility of isolates overexpressing AmpC", "protocol": "(§2) Frozen-form broth microdilution panels were manufactured by JMI Laboratories and contained cation-adjusted Mueller-Hinton broth. Quality assurance was performed by sterility checks, colony counts, and testing CLSI recommended quality control reference strains."}, "[7]": {"test_system": "Enterobacterales overproducing AmpC", "experiment": "Broth microdilution susceptibility of isolates overexpressing AmpC", "protocol": "as §2"}, "[8]": {"test_system": "methicillin-susceptible staphylococci, including MSSA, MSSE, and other MSCONS", "experiment": "Broth microdilution against Gram-positive clinical isolates, summary", "protocol": "as §1, with “JMI Laboratories produced frozen-form 96-well panels and used cation-adjusted Mueller-Hinton broth (CA-MHB) as the testing medium. All categorical interpretations used CLSI M100 (2021) and EUCAST v10.0 (2021) breakpoint criteria, where published. Quality control organisms include Escherichia coli ATCC 25922, Escherichia coli ATCC 35218, Enterococcus faecalis ATCC 29212, Pseudomonas aeruginosa ATCC 27853, and Staphylococcus aureus ATCC 29213 were tested concurrently with clinical isolates.” left out"}, "[9]": {"test_system": "AmpC production in Enterobacterales", "experiment": "AmpC induction (nitrocefin hydrolysis after drug exposure)", "conditions": "tebipenem/imipenem except for C. koseri and S. marcescens", "protocol": "(§3) AmpC induction was determined as follows. Baseline MIC values were determined by broth microdilution method, as described above, for 9 Gram-negative isolates with basal expression of ampC. These isolates were cultured overnight on blood agar plates. A standardized inoculum made from fresh overnight plate cultures was added to flasks containing 50 mL of Luria-Bertani (LB) broth and incubated by shaking at 37° C. to OD600 of 0.3. […] These cultures were incubated under shaking conditions. A 40 mL aliquot of bacterial cultures was sampled at time 0 and 2 hours after drug exposures. Each sample aliquot was harvested by centrifugation and the supernatant was discarded.\n(§4) Protein crude extract preparations were made in 200 μL of BugBusterR (Novagen, Darmstadt, Germany) per manufacturer instructions and cell debris was removed by centrifugation. Protein concentrations were determined in each crude extract by standard methodologies.\n(§5) AmpC induction was measured by the intensity of β-lactamase hydrolytic activity against 0.1 mM nitrocefin in 0.1 M phosphate buffer at pH 7.0 using spectrophotometry at 482 nm (Δ absorbance/minute/mg of protein). The drug exposure conditions that caused a >4-fold increase in hydrolysis activity compared to the baseline were subjected to postinduction experiments. Briefly, cells were grown under the same conditions as before and tested for susceptibility by broth microdilution."}, "[10]": {"test_system": "AmpC production in P. aeruginosa", "experiment": "AmpC induction (nitrocefin hydrolysis after drug exposure)", "protocol": "as §3, §4, §5"}, "[11]": {"conditions": "Staphylococcus aureus, 489 isolates"}, "[12]": {"conditions": "Staphylococcus epidermidis, 31 isolates"}, "[13]": {"conditions": "P. aeruginosa overproducing AmpC"}}, "note": "Read-outs that look alike come from different tables or passages of the source."}
{"smiles": "C[C@@H](O)[C@H]1C(=O)N2C(C(=O)O)=C(SC3CN(C4=NCCS4)C3)[C@H](C)[C@H]12", "note": "[Tebipenem, tebipenem]", "values": [{"measurement": "MIC90", "setting": "[1]", "value": "0.015 to 0.06", "unit": "µg/mL"}, {"measurement": "MIC90 fold lower than ertapenem", "setting": "[2]", "value": 8, "unit": "fold"}, {"measurement": "MIC50", "setting": "[2]; [11]", "value": 0.015, "unit": "µg/mL"}, {"measurement": "MIC90", "setting": "[2]; [11]", "value": 0.03, "unit": "µg/mL"}, {"measurement": "MIC90 fold lower than ertapenem", "setting": "[3]", "value": 16, "unit": "fold"}, {"measurement": "MIC90 fold lower than meropenem", "setting": "[3]", "value": "at least 2 fold"}, {"measurement": "concentration inhibiting all isolates", "setting": "[3]", "value": "≤ 1", "unit": "mg/L"}, {"measurement": "MIC90", "setting": "[3]; Enterococcus faecalis, 31 isolates", "value": 1, "unit": "µg/mL"}, {"measurement": "MIC90 fold lower than ertapenem", "setting": "[4]", "value": 32, "unit": "fold"}, {"measurement": "MIC50", "setting": "[4]; [12]", "value": 0.008, "unit": "µg/mL"}, {"measurement": "MIC90", "setting": "[4]; [12]", "value": 0.015, "unit": "µg/mL"}, {"measurement": "MIC90 fold lower than ertapenem", "setting": "[5]", "value": 32, "unit": "fold"}, {"measurement": "MIC50", "setting": "[5]; 29 isolates", "value": 0.015, "unit": "µg/mL"}, {"measurement": "MIC90", "setting": "[5]; 29 isolates", "value": 0.03, "unit": "µg/mL"}, {"measurement": "MIC range", "setting": "[6]; P. aeruginosa (32)", "value": "2 to 8", "unit": "μ/ml"}, {"measurement": "MIC50", "setting": "[6]; [13]", "value": 4, "unit": "µg/mL"}, {"measurement": "MIC90", "setting": "[6]; [13]", "value": 4, "unit": "µg/mL"}, {"measurement": "MIC50", "setting": "[7]", "value": 0.03, "unit": "µg/mL"}, {"measurement": "MIC90", "setting": "[7]", "value": 0.25, "unit": "µg/mL"}, {"measurement": "MIC50", "setting": "[7]; Enterobacterales (36)", "value": 0.03, "unit": "μ/ml"}, {"measurement": "MIC90", "setting": "[7]; Enterobacterales (36)", "value": 0.25, "unit": "μ/ml"}, {"measurement": "MIC range", "setting": "[7]; Enterobacterales (36)", "value": "0.015 to 1", "unit": "μ/ml"}, {"measurement": "concentration inhibiting all isolates", "setting": "[7]; Enterobacterales overproducing AmpC", "value": "≤ 1", "unit": "µg/mL"}, {"measurement": "MIC50 and MIC90 values, range over species groups", "setting": "[8]", "value": "0.015 to 0.03", "unit": "µg/mL"}, {"measurement": "activity fold greater than ertapenem", "setting": "[8]", "value": "16- to 32 fold"}, {"measurement": "effect of exposure on production of AmpC", "setting": "[9]", "value": "increased production of AmpC"}, {"measurement": "effect of exposure on production of AmpC", "setting": "[10]", "value": "increased the production of AmpC"}]}
